Measurements reported in US11957703B2, “Modulating Nudix homology domain (NHD) with nicotinamide mononucleotide analogs and derivatives of same” (President and Fellows of Harvard College, priority 2017, dated 2024).

How the values were obtained:
[1] = target: T1, PARP1-DBC1 complex (Homo sapiens, UniProt Q8N163); test: PARP1-DBC1 dissociation assay (Flag-DBC1 immunoprecipitates incubated with molecules); assay type: binding
T1 construct: expressed in transfected cells; host or cells: 293T cells stably expressing Flag-DBC1 (retroviral pMSCVpuro-Flag-DBC1)
Protocol: (§1) Protein extracts from 293T or mouse liver tissues were lysed in ice-cold buffer (150 mM NaCl, 1 mM EDTA, 1 mM EGTA, 1% Triton X-100, 0.5% NP-40, 10 mM Tris HCl, pH 7.4) supplemented with protease inhibitors cocktail cOmplete tablets (Roche) and phosphatase inhibitor cocktail 2 and 3 (Sigma). Protein concentrations were determined by the Bradford protein assay (Bio-rad). Flag-M2 agarose beads or anti-V5 agarose affinity gel (Sigma) were mixed with the lysate supernatant. Immunoprecipitation was allowed to proceed for 2 hours up to overnight at 4° C. with gentle rotation. After 4 washes with lysis buffer, proteins were either directly boiled in SDS-PAGE sample buffer or eluted from the agarose beads using 3×FLAG peptides (Sigma).
(§2) Cell lysates or Co-IP samples were run on homemade 10% or 4-20% gradient pre-cast SDS-PAGE gels (Bio-Rad) under reducing conditions, and then transferred to a polyvinylidene difluoride (PVDF) membrane (Millipore). Membranes were blocked with 5% non-fat dry milk in TBS-Tween (10 mM Tris HCl, pH 7.5, 150 mM NaCl, and 0.1% Tween-20). Antibodies were used at the following concentrations: anti-SIRT1 (Santa Cruz, SC-15404) at 1:500, anti-DBC1 (Bethyl Labotatories, A300-434A) at 1:1000, anti-PARP1 (Cell Signaling, #9542L) at 1:1000, anti-γH2AX (Abcam, ab2893) at 1:1000, anti-H2AX (Abcam, ab11175) at 1:1000, anti-NMNAT1 (Abcam, ab45548) at 1:1000, anti-GAPDH (Millipore, MAB374) at 1:3000, anti-V5 (Invitrogen, R960-25) at 1:3000, anti-beta-tubulin (Upstate, 05-661) at 1:1000, anti-α-actin (Millipore, MAB1501R) at 1:2000, anti-Flag (Sigma, F7425) at 1:3000, anti-PARG (Abcam, ab16060) at 1:1000, p53 (Calbiochem, OP43) at 1:1000, RAD51 (Calbiochem, PC130) at 1:1000, p21 (Neomarker-Labvision-Thermal Fisher, RB-032-P1) at 1:1000, SIRT6 (Cell signaling, D8D12) at 1:1000, Streptavidin-HRP at 1:1000 (Trevigen #4800-30-06), anti-PAR (Trevigen, #4335-MC-100; Abcam, ab14459) at 1:1000 and anti-PARP2 (Santa Cruz, SC-393310) at 1:200 overnight at 4° C. The antibodies ATM, ATR, BRCA1, Chk1, Chk2, DNA-PKs and XRCC1 were all from the Bethyl Laboratories. Phospho-Chk1, phospho-Chk2 and phosphor-p53 antibodies were from a DNA Damage Antibody Sampler Kit (Cell Signaling #9947). Secondary antibodies were horseradish peroxidase-coupled sheep anti-mouse IgG (GE Healthcare, UK), donkey anti-rabbit IgG (GE Healthcare, UK). Amersham™ ECL and Amersham Select ECL western blotting detection systems (GE Healthcare, UK) were used to develop signals. Quantifications of images from western blot films were performed using ImageJ (National Institutes of Health, Bethesda, MD).
Equal aliquots of 293T cell lysates with over-expressing Flag-DBC1 were immunoprecipitated using Flag-M2 agarose beads as described above. After four brief washes with lysis buffer, the beads aliquots were incubated with the freshly dissolved NAD^+ or other chemicals for 1 hr at 4° C. with gentle rotation then centrifuged (5000 rpm, 5 min). After completely removing supernatant, the beads were boiled in SDS loading buffer, analyzed by SDS-PAGE, and probed with antibodies.

[2] = test system: PARP1-DBC1 interaction; test: PARP1-DBC1 interaction in treated 293T cells (co-immunoprecipitation); assay type: cell-based, human; conditions: for effect on the PARP1-DBC1 interaction in 293T cells: PJ34 or 3-AB (2 mM) for 24 hrs
Protocol: 293T, MCF-7, DBC1 wild type and knockout MEFs (a gift from Dr. Eduardo N. Chini from Mayo Clinic) were cultured in Dulbecco's modified Eagle's medium (DMEM, Mediatech, Inc., Herndon, VA) supplemented with 10% fetal bovine serum (Gemini Bio-products, Woodland, CA) with the presence of penicillin and streptomycin (Corning, Manassas, VA). Retroviruses expressing wild-type or mutant Flag-DBC1 proteins were produced by transfecting 293T cells with plasmids encoding VSV-G, Gag-Pol, and pMSCVpuro-Flag-DBC1 constructs using Lipofectamine® 2000 according to the manufacturer's instructions. Media was changed the day after transfection, and virus-containing media was harvested between 48 and 72 hours post-transfection and filtered through a […] (Corning, Manassas, VA). The filtered media was incubated with the target cells in the presence of 5 μg/mL polybrene (Sigma) and selection started using puromycin (2 μg/mL) 48 hrs post-infection. Lentivirus for knocking down DBC1 or SIRT1 was produced by transfecting 293T with psPAX2 (Addgene plasmid #12260), pMD2.G (Addgene plasmid #12259) and shRNA constructs using Lipofectamine® 2000. The virus harvest, infection and selection were same as described for retrovirus production. The transfections of siRNA were performed using Lipofectamine® RNAiMAX, according to the manufacturer's instructions.
as §1
(§3) Cell lysates or Co-IP samples were run on homemade 10% or 4-20% gradient pre-cast SDS-PAGE gels (Bio-Rad) under reducing conditions, and then transferred to a polyvinylidene difluoride (PVDF) membrane (Millipore). Membranes were blocked with 5% non-fat dry milk in TBS-Tween (10 mM Tris HCl, pH 7.5, 150 mM NaCl, and 0.1% Tween-20). […] Quantifications of images from western blot films were performed using ImageJ (National Institutes of Health, Bethesda, MD).

[3] = test system: PAR; test: PAR induced by paraquat in 293T cells (western blot); assay type: cell-based, human; conditions: 3-AB 2 mM, paraquat 0.5 mM
Protocol: as §2, with “The antibodies ATM, ATR, BRCA1, Chk1, Chk2, DNA-PKs and XRCC1 were all from the Bethyl Laboratories. Phospho-Chk1, phospho-Chk2 and phosphor-p53 antibodies were from a DNA Damage Antibody Sampler Kit (Cell Signaling #9947). Secondary antibodies were horseradish peroxidase-coupled sheep anti-mouse IgG (GE Healthcare, UK), donkey anti-rabbit IgG (GE Healthcare, UK). Amersham™ ECL and Amersham Select ECL western blotting detection systems (GE Healthcare, UK) were used to develop signals.” left out

[4] = test system: SIRT1-DBC1 interaction; test: SIRT1-DBC1 interaction in treated 293T cells; assay type: cell-based, human; conditions: FK866 (5 nM, 24 hrs)
Protocol: 293T, MCF-7, DBC1 wild type and knockout MEFs (a gift from Dr. Eduardo N. Chini from Mayo Clinic) were cultured in Dulbecco's modified Eagle's medium (DMEM, Mediatech, Inc., Herndon, VA) supplemented with 10% fetal bovine serum (Gemini Bio-products, Woodland, CA) with the presence of penicillin and streptomycin (Corning, Manassas, VA). Retroviruses expressing wild-type or mutant Flag-DBC1 proteins were produced by transfecting 293T cells with plasmids encoding VSV-G, Gag-Pol, and pMSCVpuro-Flag-DBC1 constructs using Lipofectamine® 2000 according to the manufacturer's instructions. […]
Protein extracts from 293T or mouse liver tissues were lysed in ice-cold buffer (150 mM NaCl, 1 mM EDTA, 1 mM EGTA, 1% Triton X-100, 0.5% NP-40, 10 mM Tris HCl, pH 7.4) supplemented with protease inhibitors cocktail cOmplete tablets (Roche) and phosphatase inhibitor cocktail 2 and 3 (Sigma). Protein concentrations were determined by the Bradford protein assay (Bio-rad). […]
Cell lysates or Co-IP samples were run on homemade 10% or 4-20% gradient pre-cast SDS-PAGE gels (Bio-Rad) under reducing conditions, and then transferred to a polyvinylidene difluoride (PVDF) membrane (Millipore). […] Quantifications of images from western blot films were performed using ImageJ (National Institutes of Health, Bethesda, MD).

[5] = test system: cellular NAD^+ levels; test: NAD+ quantification in 293T cells; assay type: cell-based, human; conditions: treatment of 293T cells
Protocol: NAD^+ quantification was conducted with an NAD/NADH Quantification Kit (Biovision, Milpitas, CA) following the manufacturer's instructions and normalized to soluble protein content.

[6] = test system: p53 and RAD51 pulled down with Flag-DBC1; test: Interaction of DNA repair proteins with Flag-DBC1 in 293T cells; assay type: cell-based, human; conditions: 0.5 mM, 24 hrs
Protocol: as §1, §3

[7] = target: T2, DBC1WT (Homo sapiens, UniProt Q8N163); test: Biotin-NAD+ binding assay, DBC1 wild type; conditions: unlabeled competitor
T2 construct: expressed in transfected cells; host or cells: 293T cells
Protocol: Lysates of 293T cells expressing Flag-DBC1 or V5/his-DBC1 were prepared as described above and bound to an anti-Flag high sensitivity M2 coated 96-well plate (Sigma) or His-Select® high sensitivity nickel coated 96-well plate (Sigma) by incubating for 3-4 hrs at 4° C., then washed three times with lysis buffer. Biotin-NAD^+ (Trevigen), or specified molecules were incubated in the plates overnight at 4° C. After washing twice with PBS (pH 7.4) and twice with PBS-T (0.1% Triton X-100), streptavidin-HRP (Trevigen, 1:500) in PBS-T was added to each well and incubated for 1 hr at room temperature. After washing twice with PBS (pH 7.4) and twice with PBS-T, 100 μl of PeroxyGlow™ A and B chemiluminescent substrates (Trevigen) mixture (1:1) was added into each well for 1 min followed by immediate quantification of chemiluminescence on a EnSpire 2300 Multi-label reader (Perkin Elmer). Binding curves were calculated using the “one site, specific binding” formula of GraphPad.

T1 sequence (Q8N163 whole entry, one chain of several): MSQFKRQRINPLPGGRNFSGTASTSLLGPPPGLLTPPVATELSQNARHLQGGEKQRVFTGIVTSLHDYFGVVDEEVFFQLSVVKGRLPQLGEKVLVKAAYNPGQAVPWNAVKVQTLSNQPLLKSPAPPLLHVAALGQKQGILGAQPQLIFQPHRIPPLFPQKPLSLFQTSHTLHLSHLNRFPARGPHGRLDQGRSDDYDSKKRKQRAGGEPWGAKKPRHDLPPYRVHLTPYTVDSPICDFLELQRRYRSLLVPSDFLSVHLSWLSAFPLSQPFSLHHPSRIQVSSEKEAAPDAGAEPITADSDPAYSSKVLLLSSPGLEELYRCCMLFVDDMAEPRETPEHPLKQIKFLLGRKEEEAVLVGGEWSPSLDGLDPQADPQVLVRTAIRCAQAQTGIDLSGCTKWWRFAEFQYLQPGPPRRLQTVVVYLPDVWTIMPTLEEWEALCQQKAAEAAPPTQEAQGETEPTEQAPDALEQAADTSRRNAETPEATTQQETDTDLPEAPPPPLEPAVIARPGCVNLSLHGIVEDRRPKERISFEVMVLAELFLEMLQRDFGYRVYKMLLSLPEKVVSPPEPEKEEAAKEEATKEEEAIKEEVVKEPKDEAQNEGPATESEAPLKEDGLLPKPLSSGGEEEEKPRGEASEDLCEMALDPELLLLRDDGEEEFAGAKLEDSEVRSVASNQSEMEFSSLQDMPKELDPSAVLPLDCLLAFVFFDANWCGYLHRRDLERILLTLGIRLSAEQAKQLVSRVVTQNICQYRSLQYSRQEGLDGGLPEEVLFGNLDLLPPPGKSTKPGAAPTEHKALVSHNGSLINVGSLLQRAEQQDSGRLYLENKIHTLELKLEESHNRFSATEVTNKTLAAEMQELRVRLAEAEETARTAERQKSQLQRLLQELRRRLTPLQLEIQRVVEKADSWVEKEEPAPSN
T2 sequence (Q8N163 whole entry): as the sequence (Q8N163 whole entry, one chain of several) above

Structure (SMILES): NC(=O)c1cccc(N)c1 [3-AB, 3-aminobenzamide]
- effect on the PARP1-DBC1 complex ([1]; 2 mM, 1 hr): no effect
- effect on the PARP1-DBC1 interaction in 293T cells [2]: no effect
- PAR induced by paraquat [3]: inhibitory effect

Structure (SMILES): Nc1ncnc2c1ncn2[C@@H]1O[C@H](COP(=O)(O)OP(=O)(O)OC[C@H]2OC(O)[C@H](O)[C@@H]2O)[C@@H](O)[C@H]1O (stereo partly drawn) [ADPr, ADP-ribose]
- effect on the PARP1-DBC1 complex ([1]; 200 μM, 1 hr): no effect

Structure (SMILES): Nc1ncnc2c1ncn2[C@@H]1O[C@H](COP(=O)(O)OP(=O)(O)OP(=O)(O)O)[C@@H](O)[C@H]1O [ATP, adenosine triphosphate]
- effect on the PARP1-DBC1 complex ([1]; 200 μM, 1 hr): no effect

Structure (SMILES): NC(=O)c1ccc[n+]([C@@H]2C[C@H](COP(=O)(O)OP(=O)(O)OC[C@H]3O[C@@H](n4cnc5c(N)ncnc54)[C@H](O)[C@@H]3O)[C@@H](O)[C@H]2O)c1 [Carba-NAD, Carbanicotinamide adenine dinucleotide]
- effect on the PARP1-DBC1 complex ([1]; non-hydrolysable NAD^+ analogue, concentration not given): abrogated

Structure (SMILES): O=C(/C=C/c1cccnc1)NCCCCC1CCN(C(=O)c2ccccc2)CC1 [FK866]
- PARP1-DBC1 interaction in HEK293T cells ([2]; FK866, 24 hrs): increased
- SIRT1-DBC1 interaction in cells [4]: slightly diminished

Structure (SMILES): NC(=O)C1=CN([C@@H]2O[C@H](COP(=O)(O)OP(=O)(O)OC[C@H]3O[C@@H](n4cnc5c(N)ncnc54)[C@H](O)[C@@H]3O)[C@@H](O)[C@H]2O)C=CC1 [NADH]
- effect on the PARP1-DBC1 complex ([1]; 200 μM, 1 hr): less effective than NAD^+

Structure (SMILES): NC(=O)c1cccnc1 [NAM, Nicotinamide]
- effect on the PARP1-DBC1 complex ([1]; 500 μM, 1 hr): no effect

Structure (SMILES): NC(=O)c1ccc[n+]([C@@H]2O[C@H](CO)[C@@H](O)[C@H]2O)c1 [NR, Nicotinamide Riboside]
- effect on the PARP1-DBC1 complex ([1]; 200 μM, 1 hr): no effect
- PARP1-DBC1 complex in 293T cells ([2]; treatment of 293T cells with NR): dissociates
- cellular NAD^+ levels [5]: raises

Structure (SMILES): CN(C)CC(=O)Nc1ccc2[nH]c(=O)c3ccccc3c2c1 [PJ-34]
- effect on the PARP1-DBC1 interaction in 293T cells [2]: no effect

Structure (SMILES): Nc1ncnc2nc[nH]c12 [adenine]
- effect on the PARP1-DBC1 complex ([1]; 200 μM, 1 hr): less effective than NAD^+

Structure (SMILES): Nc1ncnc2c1ncn2[C@@H]1O[C@H](CO)[C@@H](O)[C@H]1O [adenosine]
- effect on the PARP1-DBC1 complex ([1]; 200 μM, 1 hr): no effect

Structure (SMILES): C[n+]1ccc(-c2cc[n+](C)cc2)cc1 [paraquat]
- interaction of p53 and RAD51 with Flag-DBC1 [6]: did not change

Structure (SMILES): NC(=O)c1ccc[n+]([C@@H]2O[C@H](COP(=O)([O-])OP(=O)(O)OC[C@H]3O[C@@H](n4cnc5c(N)ncnc54)[C@H](O)[C@@H]3O)[C@@H](O)[C@H]2O)c1 [unlabeled NAD^+]
- competition of labeled NAD^+ bound to DBC1 [7]: competed off
